Converted amounts (≈) assume the structure as drawn.
Key:
MRSA MW2 = assay: Antibiotic synergy test (checkerboard); type: cell-based, S. aureus; settings: nTZDpa in combination with the named antibiotic, synergy if FICI ≤ 0.5
Protocol: Antibiotic synergy test. Antibiotic synergism was evaluated by the checkerboard method. Briefly, 2-fold serial dilutions of nTZDpa were combined with 2-fold serial dilutions of each other antibiotic, which created an 8×8 matrix in a 96-well microtiter plate. The fractional inhibitory concentration index (FICI) was calculated as follows: FICI=MIC of compound A in combination/MIC of compound A alone+MIC of compound B in combination/MIC of compound B alone. The interaction between two compounds was defined, as follows: synergy if FICI≤0.5, no interaction if 0.5<FICI≤4, and antagonism if FICI>4.

human erythrocytes = assay: Human blood hemolysis; type: cell-based; settings: human erythrocytes
Protocol: Human blood hemolysis. Hemolytic activity was evaluated as described in a previous study. Briefly, 100 μL of 4% human erythrocytes (Rockland Immunochemicals, Limerick, Pa., USA) was added to 100 μL of 2-fold serial dilutions of compounds in PBS, 0.2% DMSO (negative control), or 2% Triton-X 100 (positive control) in a 96-well plate. The 96-well plate was incubated at 37° C. for 1 h and then centrifuged at 500× g for 5 min. 50 μL of the supernatant was transferred to a fresh 96-well plate, and absorbance of supernatants was measured at 540 nm. Percent hemolysis was calculated using the following equation: (A540 nm of compound treated sample−A540 nm of 0.1% DMSO treated sample)/(A540 nm of 1% Triton X-100 treated sample−A540 nm of 0.1% DMSO treated sample)×100. HC50 (concentration of a compound causing 50% hemolysis) was determined using SigmaPlot 10.0 (Systat Software Inc., San Jose, Calif., USA).

[1] = test system: MRSA MW2 persisters (stationary phase); assay: Persister killing assay; type: cell-based, S. aureus; settings: 64 μg/mL
Protocol: Persister killing assay. […] Persister cells of MRSA MW2 were prepared by growing cultures overnight to stationary phase at 37° C. at 200 rpm and washing 3 times with PBS. 1 mL of ˜2×10^8 CFU/mL MRSA persisters was added to 1 mL of PBS containing 2-fold of the desired concentration of antibiotics in a 96-well assay block (Corning Costar 3960). The assay block was incubated at 37° C., with shaking at 200 rpm. At specific times, […] were removed, washed once with PBS, serially diluted and spot-plated on TSA plates. Colonies were counted to enumerate the number of live cells after overnight incubation at 37° C. These experiments were conducted in biological triplicate.

S. aureus (MRSA) MW2 = assay: Minimal inhibitory concentration (MIC) assay, micro-dilution; type: cell-based
Excerpt: (§1) Bacterial strains, growth conditions, and persister isolation. Methicillin-resistant S. aureus strains, MW2 BAA-1707, ATCC 33591, and JE2, methicillin-susceptible S. aureus strains, NCTC 8325, Newman, and ATCC 29213, vancomycin-resistant S. aureus strain, VRS1, Enterococcus faecium E007, vancomycin-resistant E. faecium strains, C68,^7 WB312, and WC196, Klebsiella pneumoniae WGLW2 (BEI Resources, Manassas, Va., USA), Acinetobacter baumannii ATCC 17978, Pseudomonas aeruginosa PA14, and Enterobacter aerogenes ATCC 13048 were used to test antimicrobial activity (Table 1). S. aureus strains were grown in tryptic soy broth (TSB) (BD, Franklin Lakes, N.J., USA), and E. faecium was grown in brain-heart infusion (BHI) broth (BD, Franklin Lakes, N.J., USA) at 37° C. K. pneumoniae, A. baumannii, P. aeruginosa, and E. aerogenes were grown in Luria Bertani (LB) broth (BD, Franklin Lakes, N.J., USA) at 37° C.
(§2) Minimal inhibitory concentration (MIC) assay. The MICS of antibiotics were determined by the standard micro-dilution method recommended by the Clinical and Laboratory Standards Institute. MIC assays were conducted in biological triplicate.

S. aureus NCTC 8325 = assay: MIC assay; type: cell-based; settings: S. aureus NCTC 8325
Excerpt: as §1, §2

S. aureus ATCC 29213 = assay: MIC assay; type: cell-based; settings: S. aureus ATCC 29213
Excerpt: as §1, §2

S. aureus ATCC 33591 = assay: MIC assay; type: cell-based; settings: S. aureus ATCC 33591
Excerpt: as §1, §2

S. aureus JE2 = assay: MIC assay; type: cell-based; settings: S. aureus JE2
Excerpt: as §1, §2

S. aureus Newman = assay: MIC assay; type: cell-based; settings: S. aureus Newman
Excerpt: as §1, §2

S. aureus VRS1 = assay: MIC assay; type: cell-based; settings: S. aureus VRS1
Excerpt: as §1, §2

A. baumannii ATCC 17978 = assay: MIC assay; type: cell-based, Acinetobacter baumannii; settings: A. baumannii ATCC 17978
Excerpt: as §1, §2

E.faecium E007 = assay: MIC assay; type: cell-based, Enterococcus faecium; settings: E.faecium E007
Excerpt: as §1, §2

E. faecium WC196 = assay: MIC assay; type: cell-based, Enterococcus faecium; settings: E. faecium WC196
Excerpt: as §1, §2

E. faecium WB312 = assay: MIC assay; type: cell-based, Enterococcus faecium; settings: E. faecium WB312
Excerpt: as §1, §2

E. faecium C68 = assay: MIC assay; type: cell-based, Enterococcus faecium; settings: E. faecium C68
Excerpt: as §1, §2

K. pneumoniae WGLW2 = assay: MIC assay; type: cell-based, Klebsiella pneumoniae; settings: K. pneumoniae WGLW2
Excerpt: as §1, §2

P. aeruginosa PA14 = assay: MIC assay; type: cell-based, Pseudomonas aeruginosa; settings: P. aeruginosa PA14
Excerpt: as §1, §2

E. aerogenes ATCC 13048 = assay: MIC assay; type: cell-based, Enterobacter aerogenes; settings: E. aerogenes ATCC 13048
Excerpt: as §1, §2

`CN(C)[C@@H]1C(O)=C(C(N)=O)C(=O)[C@@]2(O)C(O)=C3C(=O)c4c(O)cccc4[C@@](C)(O)[C@H]3C[C@@H]12` [Tetracycline, tetracycline] was tested, and the “FICI (fractional inhibitory concentration index)” value (MRSA MW2) was 1.125.

In the case of `O=C(O)c1c(Oc2ccccc2)c2cc(Cl)ccc2n1Cc1ccc(Cl)cc1` [Compound 6, 5-chloro-1-(4-chlorobenzyl)-3-phenoxy-1H-indole-2-carboxylic acid], the “HC50: median hemolytic concentration” value (human erythrocytes) is reported as >64 µg/mL, the “decrease in viability of persisters” value [1] is reported as 3 log and the MIC (S. aureus (MRSA) MW2; Staphylococcus aureus, Table 3, growing MRSA, read-out: MIC) is reported as 4 mg/L (≈ 9.7 µM). For the same compound, the “antibiotic activity / potency relative to nTZDpa” value (S. aureus (MRSA) MW2; growing S. aureus cells) was “equipotent with nTZDpa”.

`Cc1onc(-c2ccccc2)c1C(=O)N[C@@H]1C(=O)N2[C@@H]1SC(C)(C)[C@@H]2C(=O)O` [Oxa, oxacillin] was tested, and the Minimum inhibitory concentration (S. aureus NCTC 8325) was 0.5 mg/L (≈ 1.25 µM), the Minimum inhibitory concentration (S. aureus ATCC 29213) was 0.5 mg/L (≈ 1.25 µM) and the Minimum inhibitory concentration (S. aureus ATCC 33591) was >64 mg/L. The Minimum inhibitory concentration (S. aureus JE2) was 64 mg/L (≈ 159 µM), the Minimum inhibitory concentration (S. aureus Newman) was 0.5 mg/L (≈ 1.25 µM) and the Minimum inhibitory concentration (S. aureus VRS1) was >64 mg/L. The Minimum inhibitory concentration (A. baumannii ATCC 17978) was >64 mg/L, the Minimum inhibitory concentration (S. aureus (MRSA) MW2; S. aureus (MRSA) MW2) was 64 mg/L (≈ 159 µM) and the Minimum inhibitory concentration (E.faecium E007) was >64 mg/L. The Minimum inhibitory concentration (E. faecium WC196) was >64 mg/L, the Minimum inhibitory concentration (E. faecium WB312) was >64 mg/L and the Minimum inhibitory concentration (E. faecium C68) was >64 mg/L. For the same compound, the Minimum inhibitory concentration (K. pneumoniae WGLW2) was >64 mg/L, the Minimum inhibitory concentration (P. aeruginosa PA14) was >64 mg/L and the Minimum inhibitory concentration (E. aerogenes ATCC 13048) was >64 mg/L.

In the case of `CO[C@H]1/C=C/O[C@@]2(C)Oc3c(C)c(O)c4c(O)c(c(/C=N/N5CCN(C)CC5)c(O)c4c3C2=O)NC(=O)/C(C)=C\C=C\[C@H](C)[C@H](O)[C@@H](C)[C@@H](O)[C@@H](C)[C@H](OC(C)=O)[C@@H]1C` [Rifampicin, rifampicin], the “FICI (fractional inhibitory concentration index)” value (MRSA MW2) is reported as 1.

For `NC[C@H]1O[C@H](O[C@H]2[C@H](O)[C@@H](O[C@H]3O[C@H](CO)[C@@H](O)[C@H](N)[C@H]3O)[C@H](N)C[C@@H]2N)[C@H](O)[C@@H](O)[C@@H]1O` [Kanamycin, kanamysin], the “FICI (fractional inhibitory concentration index)” value (MRSA MW2) was 0.5.

In the case of `[H]/N=C(/N)N[C@H]1[C@H](O)[C@@H](O)[C@H](O[C@@H]2O[C@@H](C)[C@](O)(C=O)[C@H]2O[C@@H]2O[C@@H](CO)[C@H](O)[C@@H](O)[C@@H]2NC)[C@@H](N/C(N)=N\[H])[C@@H]1O` [Streptomycin, streptomycin], the “FICI (fractional inhibitory concentration index)” value (MRSA MW2) is reported as 0.37.

In the case of `NC[C@H]1O[C@H](O[C@H]2[C@H](O)[C@@H](O[C@H]3O[C@H](CO)[C@@H](O)[C@H](N)[C@H]3O)[C@H](N)C[C@@H]2N)[C@H](N)C[C@@H]1O` [Tobramycin, tobaramysin], the “FICI (fractional inhibitory concentration index)” value (MRSA MW2) is reported as 0.31.
